Source: patent US11266655B2, “Methods and compositions for treating urea cycle disorders” (Camp4 Therapeutics Corporation, priority 2019, dated 2022)
Read-outs that look alike come from different tables or passages of the source.

What was measured:
[1] = test system: Bcr-Abl (wildtype); settings: cited from earlier work
[2] = test system: Bcr-Abl (T315I); settings: cited from earlier work
[3] = test system: NAGS; format: cell-based, human
[4] = molecular target: PKCβ (Homo sapiens, UniProt P05771); settings: cited from earlier work
[5] = molecular target: PKCδ (Homo sapiens, UniProt Q05655); settings: cited from earlier work
[6] = molecular target: PKCγ (Homo sapiens, UniProt P05129); settings: cited from earlier work
[7] = molecular target: PKCα (Homo sapiens, UniProt P17252); settings: cited from earlier work
[8] = molecular target: c-Met (Homo sapiens, UniProt P08581); settings: cited from earlier work
[9] = test system: OTC; experiment: siRNA SMARTpool transfection of primary human hepatocytes, OTC qPCR (Table 3B); format: cell-based; settings: siRNA 10 nM, 48 hrs, vs non-targeting siRNA
Experimental: Primary human hepatocytes were reversed transfected with 6 pmol siRNA using RNAiMAX Reagent (ThermoFisher Cat No13778030) in 24 well format, 1 ul per well (for a final cone of 10 nM). The following morning, the medium was removed and replaced with Modified Maintenance Medium (see above) for an additional 24 hrs. The entire treatment lasted 48 hrs, at which point the medium was removed and replaced with RLT Buffer for RNA extraction (Qiagen RNeasy 96 QIAcube HT Kit Cat #74171). siRNAs were obtained from Dharmacon and are a pool of four siRNA duplex all designed to target distinct sites within the specific gene of interest (known as “SMARTpool”). They were tested against the control non-targeting siRNA D-001206-13-05.
Isolated RNA was processed for cDNA synthesis and qPCR as described above. Taqman assay used for OTC measurement: Hs00166892_ml

[10] = molecular target: RARγ (Homo sapiens, UniProt P13631); settings: cited from earlier work
Sequence of RARγ (P13631 whole entry): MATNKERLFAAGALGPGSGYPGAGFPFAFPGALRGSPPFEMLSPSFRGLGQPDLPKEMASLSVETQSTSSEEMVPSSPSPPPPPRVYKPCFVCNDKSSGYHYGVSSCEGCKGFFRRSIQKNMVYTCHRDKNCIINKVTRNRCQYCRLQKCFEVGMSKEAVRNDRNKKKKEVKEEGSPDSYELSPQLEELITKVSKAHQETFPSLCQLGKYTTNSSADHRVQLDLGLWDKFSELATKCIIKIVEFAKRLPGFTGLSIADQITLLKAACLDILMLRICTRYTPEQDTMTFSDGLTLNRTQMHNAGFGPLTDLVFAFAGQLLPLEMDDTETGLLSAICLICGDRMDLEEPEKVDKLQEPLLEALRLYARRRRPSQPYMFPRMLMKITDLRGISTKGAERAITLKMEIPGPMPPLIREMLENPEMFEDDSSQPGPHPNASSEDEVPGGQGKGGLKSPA

[11] = molecular target: RARα (Homo sapiens, UniProt P10276); settings: cited from earlier work
Sequence of RARα (P10276 whole entry, species assumed): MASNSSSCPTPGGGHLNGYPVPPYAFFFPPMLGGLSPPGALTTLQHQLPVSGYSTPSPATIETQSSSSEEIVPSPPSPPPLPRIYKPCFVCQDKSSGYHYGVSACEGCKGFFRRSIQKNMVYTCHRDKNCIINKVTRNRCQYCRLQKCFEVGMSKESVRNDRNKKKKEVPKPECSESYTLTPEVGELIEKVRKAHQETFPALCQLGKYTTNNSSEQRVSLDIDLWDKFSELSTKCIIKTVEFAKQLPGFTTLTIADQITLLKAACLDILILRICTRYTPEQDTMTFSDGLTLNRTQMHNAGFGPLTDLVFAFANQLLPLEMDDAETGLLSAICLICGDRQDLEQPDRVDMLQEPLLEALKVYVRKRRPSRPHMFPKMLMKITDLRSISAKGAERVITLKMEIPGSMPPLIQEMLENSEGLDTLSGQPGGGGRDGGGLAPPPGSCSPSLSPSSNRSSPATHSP

[12] = molecular target: RARβ (Homo sapiens, UniProt P10826); settings: cited from earlier work
Sequence of RARβ (P10826 whole entry, species assumed): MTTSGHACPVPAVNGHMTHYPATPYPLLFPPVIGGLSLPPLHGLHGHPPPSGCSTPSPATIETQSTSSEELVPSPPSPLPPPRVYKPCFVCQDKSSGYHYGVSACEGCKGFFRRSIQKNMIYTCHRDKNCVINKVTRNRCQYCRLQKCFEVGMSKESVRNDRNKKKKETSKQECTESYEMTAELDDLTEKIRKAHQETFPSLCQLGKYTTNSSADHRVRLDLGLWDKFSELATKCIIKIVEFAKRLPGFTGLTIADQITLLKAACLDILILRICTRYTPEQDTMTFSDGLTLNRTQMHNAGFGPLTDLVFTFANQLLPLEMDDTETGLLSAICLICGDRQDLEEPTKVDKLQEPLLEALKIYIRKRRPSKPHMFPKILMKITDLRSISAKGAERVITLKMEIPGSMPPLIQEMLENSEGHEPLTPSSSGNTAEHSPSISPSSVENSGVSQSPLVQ

[13] = test system: SLC25A15; experiment: RNA-seq of compound-treated primary human hepatocytes, SLC25A15 expression; format: cell-based; settings: primary human hepatocytes, RNA-seq (Table 8)
[14] = test system: urea cycle genes; experiment: RNA-seq of primary human hepatocytes, compounds that modulate multiple urea cycle-related genes; format: cell-based; settings: primary human hepatocytes, RNA-seq
[15] = test system: CPS1; experiment: RNA-seq of compound-treated primary human hepatocytes, CPS1 expression; format: cell-based; settings: primary human hepatocytes; for CPS1 expression, Fold change (Log 2) vs untreated: RNA-seq
[16] = test system: ASS1; experiment: RNA-seq of compound-treated primary human hepatocytes, ASS1 expression; format: cell-based
[17] = test system: ASL; experiment: RNA-seq of compound-treated primary human hepatocytes, ASL expression; format: cell-based; settings: primary human hepatocytes
[18] = molecular target: PDGFRβ (Homo sapiens, UniProt P09619); settings: cited from earlier work
Sequence of PDGFRβ (P09619 33-1106, species assumed): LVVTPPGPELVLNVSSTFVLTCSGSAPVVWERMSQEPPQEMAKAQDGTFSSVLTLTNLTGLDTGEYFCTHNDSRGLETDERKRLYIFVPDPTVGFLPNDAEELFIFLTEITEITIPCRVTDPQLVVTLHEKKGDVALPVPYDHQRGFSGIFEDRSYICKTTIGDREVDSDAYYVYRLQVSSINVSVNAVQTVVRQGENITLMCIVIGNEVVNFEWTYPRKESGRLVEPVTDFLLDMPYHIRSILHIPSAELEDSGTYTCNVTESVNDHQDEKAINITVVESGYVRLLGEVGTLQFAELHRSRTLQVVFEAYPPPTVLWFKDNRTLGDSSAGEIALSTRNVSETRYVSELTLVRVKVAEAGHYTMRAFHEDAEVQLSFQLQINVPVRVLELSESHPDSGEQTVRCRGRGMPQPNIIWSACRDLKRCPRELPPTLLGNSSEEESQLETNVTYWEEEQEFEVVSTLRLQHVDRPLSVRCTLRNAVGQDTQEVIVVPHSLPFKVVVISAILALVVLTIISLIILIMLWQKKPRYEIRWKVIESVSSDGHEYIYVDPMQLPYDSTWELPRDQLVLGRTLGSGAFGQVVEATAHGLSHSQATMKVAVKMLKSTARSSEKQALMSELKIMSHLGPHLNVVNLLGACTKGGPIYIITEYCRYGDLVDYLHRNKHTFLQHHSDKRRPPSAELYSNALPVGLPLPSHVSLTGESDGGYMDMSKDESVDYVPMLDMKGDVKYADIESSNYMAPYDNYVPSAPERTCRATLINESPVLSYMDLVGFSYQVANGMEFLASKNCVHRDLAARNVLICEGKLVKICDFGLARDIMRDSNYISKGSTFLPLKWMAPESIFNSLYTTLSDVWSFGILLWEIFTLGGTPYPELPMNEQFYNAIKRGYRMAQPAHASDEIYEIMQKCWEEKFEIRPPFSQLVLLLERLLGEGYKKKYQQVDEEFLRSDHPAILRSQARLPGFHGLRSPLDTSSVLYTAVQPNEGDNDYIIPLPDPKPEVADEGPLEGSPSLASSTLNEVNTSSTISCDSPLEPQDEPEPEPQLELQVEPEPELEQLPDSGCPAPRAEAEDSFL

[19] = test system: ARG1; experiment: RNA-seq of compound-treated primary human hepatocytes, ARG1 expression; format: cell-based; settings: for Fold change (Log 2) vs untreated, ARG1 expression: primary human hepatocytes, RNA-seq (Table 7)
[20] = test system: OTC; experiment: RNA-seq of compound-treated primary human hepatocytes, OTC expression; format: cell-based; settings: for OTC expression, Fold change (Log 2) vs untreated: RNA-seq
[21] = molecular target: PDGFRα (Homo sapiens, UniProt P16234); settings: cited from earlier work
Sequence of PDGFRα (P16234 24-1089, species assumed): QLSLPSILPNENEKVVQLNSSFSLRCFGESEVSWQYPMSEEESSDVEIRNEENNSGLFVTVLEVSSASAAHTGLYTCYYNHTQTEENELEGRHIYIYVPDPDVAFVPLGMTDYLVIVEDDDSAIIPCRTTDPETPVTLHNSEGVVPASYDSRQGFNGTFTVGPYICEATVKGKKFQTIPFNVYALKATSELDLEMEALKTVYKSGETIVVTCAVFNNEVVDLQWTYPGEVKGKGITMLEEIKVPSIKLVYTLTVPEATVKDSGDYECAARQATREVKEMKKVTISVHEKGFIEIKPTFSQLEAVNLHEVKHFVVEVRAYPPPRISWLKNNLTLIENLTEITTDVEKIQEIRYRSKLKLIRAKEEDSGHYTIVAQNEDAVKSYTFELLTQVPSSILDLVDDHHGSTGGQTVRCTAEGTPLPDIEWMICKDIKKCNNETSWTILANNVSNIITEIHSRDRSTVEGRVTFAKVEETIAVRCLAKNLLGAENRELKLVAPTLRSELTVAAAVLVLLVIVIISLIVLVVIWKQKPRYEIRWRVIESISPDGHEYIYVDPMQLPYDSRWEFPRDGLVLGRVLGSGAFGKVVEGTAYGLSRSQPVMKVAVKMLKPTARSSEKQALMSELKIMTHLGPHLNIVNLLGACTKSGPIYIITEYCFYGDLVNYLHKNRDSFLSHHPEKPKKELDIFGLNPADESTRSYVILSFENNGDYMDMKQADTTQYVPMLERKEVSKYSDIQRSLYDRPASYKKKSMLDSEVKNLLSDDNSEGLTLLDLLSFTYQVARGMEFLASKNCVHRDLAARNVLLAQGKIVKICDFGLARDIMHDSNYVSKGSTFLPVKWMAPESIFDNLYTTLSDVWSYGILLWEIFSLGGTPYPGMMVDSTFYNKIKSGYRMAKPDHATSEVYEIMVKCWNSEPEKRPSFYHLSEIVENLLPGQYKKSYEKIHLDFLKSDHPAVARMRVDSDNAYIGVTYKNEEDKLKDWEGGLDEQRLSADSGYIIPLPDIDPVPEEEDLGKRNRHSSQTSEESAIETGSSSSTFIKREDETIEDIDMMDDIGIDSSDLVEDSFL

[22] = test system: OTC; experiment: siRNA knockdown of JAK/STAT/IRF genes in hepatocytes, OTC mRNA; format: cell-based, human; settings: 10 nM siRNA plus 0.03 nM JAK1 siRNA, FIG. 27C
Text: To confirm that JAK1 inhibition is necessary for OTC and CPS1 gene expression increase, JAK1, JAK2, and JAK3 expression was knocked down using the siRNA methods previously described in Example 1 (JAK1 siRNA Dharmacon #M-003145-02-0005; JAK2 siRNA Dharmacon #M-003146-02-0005; JAK3 siRNA Dharmacon #M-003147-01-0005). The cells were harvest for mRNA collection and quantification as previously described.
In addition, STAT5B is a JAK1 signal transducer and transcription factor activated by JAK1. STAT5B was knocked down in hepatocytes using siRNA (Dharmacon cat #M-010539-02-0005) as previously described in Example 1. The cells were harvest for mRNA collection and quantification as previously described.
To confirm the role of JAK1 and investigate the role of other signaling proteins and transcription factors in OTC and CPS1 expression, a panel of additional genes were knocked down with siRNA alone or in combination with JAK1. In particular, JAK2 was knockdown alone or in combination with JAK1. The combinations are shown in FIG. 26A and FIG. 26B. siRNA used to knock down JAK1 and JAK2 were: JAK1 siRNA Dharmacon #M-003145-02-0005; JAK2 siRNA Dharmacon #M-003146-02-0005. OTC and CPS1 mRNA expression was normalized to B2M. The assay was performed in triplicate in three donor hepatocyte cell lines: 371, 171, and 511A.
Cells were harvested after siRNA treatment for mRNA quantification. JAK1, OTC, and CPS1 mRNA levels were normalized to GUSB.

[23] = molecular target: mTOR (Homo sapiens, UniProt P42345); settings: cited from earlier work
[24] = test system: LXR; settings: cited from earlier work
[25] = molecular target: PDK1 (Homo sapiens, UniProt O15530); settings: cited from earlier work
[26] = test system: calcium channel; settings: cited from earlier work
[27] = test system: OTC; experiment: Hepatocytes incubated with increasing concentrations of IFN-γ, OTC gene expression; format: cell-based, human
Experimental: To further assess the link between JAK1 and the urea cycle genes, hepatocytes were incubated with increasing concentrations of interferon (IFN)-γ, a known JAK1 activator. The cells were harvested for mRNA collection and OTC gene expression was determined as previously described.

[28] = primary human hepatocytes, RNA-seq (Table 6)
[29] = Example 11, relative mRNA vs DMSO

GZD824 Dimesylate
IC50 [1]: 0.34 nM
IC50 [2]: 0.68 nM

COc1ccc2c(c1)c(C1=C(c3c[nH]c4ccccc34)C(=O)NC1=O)cn2CCCN(C)C [GO6983]
Fold change (Log 2) vs untreated, NAGS expression [3, 28]: 0.7 Log 2
IC50 [4]: 7 nM
IC50 [5]: 10 nM
IC50 [6]: 6 nM
IC50 [7]: 7 nM

Cc1ccc(C(=O)Nc2ccc(Oc3cc4cnn(C)c4cc3-c3cn[nH]c3)c(F)c2)c(=O)n1-c1ccc(F)cc1 [Merestinib]
half life (t1/2) [8]: 8.75 h

IRF1 (DNA GAAAGTGAAAGT; siRNA; chemistry not given here; the letters are possibly those of the target site)
Max fold change in OTC [9]: 1.70 fold

COCCOCOc1cc2ccc(-c3ccc(C(=O)O)cc3)cc2cc1C12CC3CC(CC(C3)C1)C2 [CD 2665]
Fold change (Log 2) vs untreated, NAGS expression [3]: 0.62 Log 2
Kd [10]: 110 nM
Kd [11]: > 1000 nM
Kd [12]: 306 nM

COCCOc1ccc2c(c1)ncn2-c1ccc2cccc(N3CCC(N)CC3)c2n1 [CP-673451]
Fold change (Log 2) vs untreated, SLC25A15 expression [13]: 0.76 Log 2
number of urea cycle genes whose expression was significantly up-regulated [14]: six
Relative CPS1 level vs Untreated (±Standard Deviation) ([15]; 10 uM, triplicate (Table 20, FIG. 12)): 3.90 ± 0.97
CPS1 expression, Fold change (Log 2) vs untreated [15]: 1.77 Log 2
Relative ASS1 level vs Untreated (±Standard Deviation) ([16]; 10 uM, primary human hepatocytes, triplicate (Table 15, FIG. 8)): 2.13 ± 0.68
Fold change (Log 2) vs untreated, ASS1 expression ([16]; primary human hepatocytes, RNA-seq (Table 4)): 1.52 Log 2
Relative ASL level vs Untreated (±Standard Deviation) ([17]; 10 uM, triplicate (Table 25, FIG. 17)): 2.94 ± 0.78
ASL expression, Fold change (Log 2) vs untreated ([17]; RNA-seq): 1.81 Log 2
selectivity over other angiogenic receptors [18]: > 450 fold
increase in ARG1 gene expression (Tables 17, 18, FIG. 9, 10) [19, 29]: greatest increase
Fold change (Log 2) vs untreated, ARG1 expression [19]: 3.21 Log 2
Relative OTC level vs Untreated (±Standard Deviation) ([20]; 10 uM, primary human hepatocytes, triplicate (Table 14)): 3.36 ± 1.73
increase in OTC gene expression (Table 14, FIG. 6) [20, 29]: significant increase
OTC expression, Fold change (Log 2) vs untreated ([20]; primary human hepatocytes): 2.63 Log 2
IC50 [21]: 10 nM

STAT5A (DNA ATTTCTNAGAAA; target site or template, no part of the molecule; chemistry not given here)
OTC expression after knockdown in combination with JAK1 [22]: increased

CNC(=O)Nc1ccc(-c2nc(N3CC4CCC(C3)O4)c3cnn(C4CCC5(CC4)OCCO5)c3n2)cc1 [WYE-125132 (WYE-132)]
Fold change (Log 2) vs untreated, NAGS expression [3, 28]: 0.64 Log 2
IC50 [23]: 0.19 nM

NCC(=O)Nc1ccc(-n2nc(C(F)(F)F)cc2-c2ccc3c(ccc4ccccc43)c2)cc1 [OSU-03012]
Fold change (Log 2) vs untreated, NAGS expression [3, 28]: 1.03 Log 2
increase in potency over OSU-02067 [25]: 2 fold

CCOC(=O)C1=C(COCCN)NC(C)=C(C(=O)OC)C1c1ccccc1Cl (stereo not drawn) [Amlodipine Besylate]
IC50 [26]: 1.9 nM
Fold change (Log 2) vs untreated, NAGS expression [3, 28]: 0.73 Log 2

SMAD3 (DNA YGTCTAGACA; siRNA; chemistry not given here; the letters are possibly those of the target site)
Max fold change in OTC [9]: 2.49 fold

IGF-1: Insulin-like growth factor I
Max fold change in OTC [9]: 1.69 fold
Fold change (Log 2) vs untreated, SLC25A15 expression [13]: 0.8 Log 2
number of urea cycle genes whose expression was significantly up-regulated [14]: four
Up-regulated Genes ([14]; urea cycle-related genes significantly increased (Table 10)): CPS1, OTC, ARG1, SLC25A15
CPS1 expression, Fold change (Log 2) vs untreated [15]: 2.22 Log 2
Fold change (Log 2) vs untreated, ARG1 expression [19]: 1.89 Log 2
OTC expression, Fold change (Log 2) vs untreated ([20]; primary human hepatocytes): 0.76 Log 2

B1: IFN-γ: interferon (IFN)-γ, a known JAK1 activator (protein, UniProt P01579 24-161, looked up)
Interferon gamma: QDPYVKEAENLKKYFNAGHSDVADNGTLFLGILKNWKEESDRKIMQSQIVSFYFKLFKNFKDDQSIQKSVETIKEDMNVKFFNSNKKKRDDFEKLTNYSVTDLNVQRKAIHELIQVMAELSPAAKTGKRKRSQMLFRG
OTC gene expression after IFN-γ [27]: dose-dependent decrease
OTC gene expression after IFN-γ ([27]; listed as IFNγ): decreases
